Experimental data published in the NIST ThermoML archive (doi:10.1021/acs.jced.8b00537).

Assay: xn = mol fraction of the nth substance listed
Conditions: 100 kPa, Liquid; for viscosity: Capillary tube (Ostwald / Ubbelohde) method; for speed of sound: Frequency=3 MHz, Single path-length method; for mass density: Vibrating tube method

C=CCn1cc[n+](C)c1.O=S(=O)([N-]S(=O)(=O)C(F)(F)F)C(F)(F)F + CCCO
Conditions	mass density [kg/m3]	speed of sound [m/s]	viscosity [mPa·s]
293.15 K, x1 = 0.04962	915	1204.7	2.854
293.15 K, x1 = 0.1003	1005	1193.5	3.841
293.15 K, x1 = 0.1995	1136	1193.5	5.727
293.15 K, x1 = 0.2987	1228	1202.2	7.59
293.15 K, x1 = 0.399	1297	1210.6	9.85
293.15 K, x1 = 0.5003	1352	1221	12.17
293.15 K, x1 = 0.6007	1394	1227.5	15.66
293.15 K, x1 = 0.6971	1428	1234.7	19.1
293.15 K, x1 = 0.8024	1459	1241.9	24.1
293.15 K, x1 = 0.8974	1483	1246.5	30.62
293.15 K, x1 = 1	1505	1251.6	41.83
298.15 K, x1 = 0.04962	–	1189.4	–
298.15 K, x1 = 0.1003	–	1179	–
298.15 K, x1 = 0.1995	–	1180.2	–
298.15 K, x1 = 0.2987	–	1189.5	–
298.15 K, x1 = 0.399	–	1198.3	–
298.15 K, x1 = 0.5003	–	1208.9	–
298.15 K, x1 = 0.6007	–	1215.6	–
298.15 K, x1 = 0.6971	–	1222.9	–
298.15 K, x1 = 0.8024	–	1230.3	–
298.15 K, x1 = 0.8974	–	1235	–
298.15 K, x1 = 1	–	1240.2	–
303.15 K, x1 = 0.04962	906	1174	2.215
303.15 K, x1 = 0.1003	996	1164.6	2.899
303.15 K, x1 = 0.1995	1126	1167	4.266
303.15 K, x1 = 0.2987	1219	1176.9	5.633
303.15 K, x1 = 0.399	1287	1186	7.268
303.15 K, x1 = 0.5003	1341	1197	8.94
303.15 K, x1 = 0.6007	1384	1203.9	11.42
303.15 K, x1 = 0.6971	1418	1211.3	13.82
303.15 K, x1 = 0.8024	1449	1218.8	17.21
303.15 K, x1 = 0.8974	1472	1223.6	21.53
303.15 K, x1 = 1	1495	1228.9	28.51
308.15 K, x1 = 0.04962	902	1158.7	1.969
308.15 K, x1 = 0.1003	991	1150.4	2.555
308.15 K, x1 = 0.1995	1121	1153.9	3.74
308.15 K, x1 = 0.2987	1214	1164.4	4.928
308.15 K, x1 = 0.399	1282	1174	6.339
308.15 K, x1 = 0.5003	1336	1185.2	7.782
308.15 K, x1 = 0.6007	1379	1192.3	9.908
308.15 K, x1 = 0.6971	1413	1199.9	11.95
308.15 K, x1 = 0.8024	1444	1207.5	14.8
308.15 K, x1 = 0.8974	1467	1212.4	18.38
308.15 K, x1 = 1	1489	1217.8	23.96
313.15 K, x1 = 0.04962	898	1143.4	1.759
313.15 K, x1 = 0.1003	987	1136.2	2.266
313.15 K, x1 = 0.1995	1117	1140.9	3.302
313.15 K, x1 = 0.2987	1209	1152	4.344
313.15 K, x1 = 0.399	1277	1162	5.574
313.15 K, x1 = 0.5003	1331	1173.5	6.833
313.15 K, x1 = 0.6007	1374	1180.8	8.677
313.15 K, x1 = 0.6971	1408	1188.6	10.42
313.15 K, x1 = 0.8024	1439	1196.3	12.85
313.15 K, x1 = 0.8974	1462	1201.3	15.85
313.15 K, x1 = 1	1484	1206.8	20.41
318.15 K, x1 = 0.04962	893	1128.2	1.577
318.15 K, x1 = 0.1003	982	1122.1	2.021
318.15 K, x1 = 0.1995	1112	1128	2.938
318.15 K, x1 = 0.2987	1204	1139.7	3.858
318.15 K, x1 = 0.399	1272	1150.1	4.937
318.15 K, x1 = 0.5003	1326	1161.8	6.043
318.15 K, x1 = 0.6007	1369	1169.4	7.657
318.15 K, x1 = 0.6971	1403	1177.4	9.174
318.15 K, x1 = 0.8024	1434	1185.2	11.26
318.15 K, x1 = 0.8974	1457	1190.4	13.81
318.15 K, x1 = 1	1479	1196	17.51
323.15 K, x1 = 0.04962	889	1113	1.421
323.15 K, x1 = 0.1003	977	1108	1.813
323.15 K, x1 = 0.1995	1107	1115.1	2.632
323.15 K, x1 = 0.2987	1199	1127.5	3.453
323.15 K, x1 = 0.399	1268	1138.3	4.402
323.15 K, x1 = 0.5003	1321	1150.3	5.384
323.15 K, x1 = 0.6007	1364	1158.2	6.806
323.15 K, x1 = 0.6971	1398	1166.3	8.132
323.15 K, x1 = 0.8024	1429	1174.3	9.945
323.15 K, x1 = 0.8974	1452	1179.6	12.12
323.15 K, x1 = 1	1474	1185.2	15.19
328.15 K, x1 = 0.04962	884	1097.9	1.284
328.15 K, x1 = 0.1003	973	1094	1.635
328.15 K, x1 = 0.1995	1102	1102.2	2.37
328.15 K, x1 = 0.2987	1194	1115.3	3.106
328.15 K, x1 = 0.399	1263	1126.6	3.956
328.15 K, x1 = 0.5003	1316	1138.8	4.83
328.15 K, x1 = 0.6007	1359	1147	6.09
328.15 K, x1 = 0.6971	1393	1155.3	7.262
328.15 K, x1 = 0.8024	1424	1163.5	8.834
328.15 K, x1 = 0.8974	1447	1168.9	10.73
328.15 K, x1 = 1	1469	1174.7	13.23
333.15 K, x1 = 0.04962	880	1082.7	1.166
333.15 K, x1 = 0.1003	968	1080	1.48
333.15 K, x1 = 0.1995	1097	1089.5	2.146
333.15 K, x1 = 0.2987	1189	1103.1	2.812
333.15 K, x1 = 0.399	1258	1114.9	3.573
333.15 K, x1 = 0.5003	1312	1127.5	4.36
333.15 K, x1 = 0.6007	1354	1135.9	5.485
333.15 K, x1 = 0.6971	1388	1144.5	6.518
333.15 K, x1 = 0.8024	1419	1152.8	7.905
333.15 K, x1 = 0.8974	1442	1158.4	9.475
333.15 K, x1 = 1	1465	1164.2	11.62
338.15 K, x1 = 0.04962	875	1067.5	1.061
338.15 K, x1 = 0.1003	963	1065.9	1.347
338.15 K, x1 = 0.1995	1092	1076.7	1.953
338.15 K, x1 = 0.2987	1184	1091	2.558
338.15 K, x1 = 0.399	1253	1103.4	3.252
338.15 K, x1 = 0.5003	1307	1116.2	3.957
338.15 K, x1 = 0.6007	1349	1124.9	4.964
338.15 K, x1 = 0.6971	1383	1133.8	5.889
338.15 K, x1 = 0.8024	1414	1142.2	7.111
338.15 K, x1 = 0.8974	1437	1147.9	8.498
338.15 K, x1 = 1	1460	1153.8	10.28
343.15 K, x1 = 0.04962	870	1052.3	0.971
343.15 K, x1 = 0.1003	958	1052.2	1.23
343.15 K, x1 = 0.1995	1088	1064.2	1.786
343.15 K, x1 = 0.2987	1179	1078.9	2.342
343.15 K, x1 = 0.399	1248	1092.1	2.974
343.15 K, x1 = 0.5003	1302	1105	3.611
343.15 K, x1 = 0.6007	1345	1114	4.521
343.15 K, x1 = 0.6971	1378	1123.3	5.348
343.15 K, x1 = 0.8024	1409	1131.9	6.435
343.15 K, x1 = 0.8974	1433	1137.8	7.661
343.15 K, x1 = 1	1455	1143.5	9.125
